Earlier results on one compound are cited in patent US20050226974A1 (priority 2004, published 2005).

For series [1], the system named is common food spoilage yeasts and moulds. The note with it: most strains of common food spoilage yeasts and moulds.
A further series relates to yeasts. As to conditions: some yeasts.

On to `C[C@@H]1C/C=C/C=C/C=C/C=C/[C@H](O[C@@H]2O[C@H](C)[C@@H](O)[C@H](N)[C@@H]2O)C[C@@H]2O[C@](O)(C[C@@H](O)C[C@H]3O[C@@H]3/C=C/C(=O)O1)C[C@H](O)[C@H]2C(=O)O` [Natamycin], for which the “solubility dependence on pH” value is reported as “most soluble at high or low pH”. Besides, the “concentrations inhibiting most strains” value in series [1] is given as 1-15 ppm. In the series on yeasts, the minimal inhibitory concentrations entry is “less than 3 ppm”. The maximum solubility result (in water) is reported as “around 40 ppm”.
